Measurements published in ChEMBL document CHEMBL1201862, “PubChem BioAssay data set” (2004).
Values belong to the compound of their own block, whether it stands above or below them. Active and inactive are the calls of the source.

How the values were obtained:
[1] = target: T1, Delta-type opioid receptor (Homo sapiens, UniProt P41143); assay: SAR Analysis of Antagonists of the DOR Receptor using an Image-Based Assay - Set 3. [Related pubchem assays (depositor defined):AID1777, AID1785]; type: functional
T1 sequence (P41143 whole entry): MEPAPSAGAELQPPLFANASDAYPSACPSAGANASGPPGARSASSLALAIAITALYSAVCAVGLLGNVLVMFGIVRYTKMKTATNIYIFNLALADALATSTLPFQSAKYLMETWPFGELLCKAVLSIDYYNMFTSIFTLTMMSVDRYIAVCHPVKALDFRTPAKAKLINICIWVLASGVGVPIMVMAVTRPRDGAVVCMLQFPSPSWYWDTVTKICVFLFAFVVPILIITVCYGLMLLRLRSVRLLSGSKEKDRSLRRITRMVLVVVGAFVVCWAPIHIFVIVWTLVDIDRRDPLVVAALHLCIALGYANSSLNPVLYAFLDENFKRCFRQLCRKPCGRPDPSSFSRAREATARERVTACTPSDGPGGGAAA

[2] = target: T2, Kappa-type opioid receptor (Homo sapiens, UniProt P41145); assay: SAR analysis of Antagonists of the Kappa Opioid Receptor (KOR) using an Image-Based Assay - Set 3. [Related pubchem assays (depositor defined):AID1777, AID1785]; type: functional
T2 sequence (P41145 whole entry): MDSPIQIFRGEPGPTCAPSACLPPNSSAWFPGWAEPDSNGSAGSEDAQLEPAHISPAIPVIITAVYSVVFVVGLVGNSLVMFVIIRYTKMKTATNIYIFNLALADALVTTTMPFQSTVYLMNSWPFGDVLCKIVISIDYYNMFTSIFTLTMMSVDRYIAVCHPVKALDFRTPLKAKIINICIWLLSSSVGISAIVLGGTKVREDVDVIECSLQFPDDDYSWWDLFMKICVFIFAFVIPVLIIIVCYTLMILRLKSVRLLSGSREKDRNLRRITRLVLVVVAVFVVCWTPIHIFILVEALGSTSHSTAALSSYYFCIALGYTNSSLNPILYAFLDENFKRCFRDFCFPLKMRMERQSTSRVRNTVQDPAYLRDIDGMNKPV

[3] = target: T2, Kappa-type opioid receptor; assay: SAR analysis of small molecule antagonists of the kappa opioid receptor via a luminescent beta-arrestin assay - Set 3. [Related pubchem assays (depositor defined):AID1777, AID1778, AID1785, AID1786, AID1966, AID2133, AID2136, AID2285, AID2495]; type: functional
Mu-type opioid receptor [4] = target: T3, Mu-type opioid receptor (Homo sapiens, UniProt P35372); assay: SAR Analysis of Antagonists of the MOR Receptor using an Image-Based Assay - Set 3. [Related pubchem assays (depositor defined):AID1777, AID1785, AID1786, AID1966, AID2133, AID2136, AID2284, AID2285, AID2420]; type: functional
T3 sequence (P35372 whole entry): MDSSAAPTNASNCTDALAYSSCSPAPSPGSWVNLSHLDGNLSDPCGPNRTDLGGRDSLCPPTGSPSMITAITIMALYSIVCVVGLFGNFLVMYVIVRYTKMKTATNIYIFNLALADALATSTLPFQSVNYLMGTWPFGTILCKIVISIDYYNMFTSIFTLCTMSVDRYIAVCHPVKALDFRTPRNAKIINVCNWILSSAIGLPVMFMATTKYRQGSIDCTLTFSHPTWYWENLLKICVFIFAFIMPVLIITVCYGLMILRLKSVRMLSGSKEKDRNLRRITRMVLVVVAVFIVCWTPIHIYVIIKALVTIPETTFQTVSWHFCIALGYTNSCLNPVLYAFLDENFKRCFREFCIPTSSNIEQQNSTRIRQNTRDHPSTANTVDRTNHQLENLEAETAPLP

Beta-galactosidase [5] = target: T4, Beta-galactosidase (Escherichia coli, UniProt Q8VNN2); type: functional
T4 sequence (Q8VNN2 whole entry): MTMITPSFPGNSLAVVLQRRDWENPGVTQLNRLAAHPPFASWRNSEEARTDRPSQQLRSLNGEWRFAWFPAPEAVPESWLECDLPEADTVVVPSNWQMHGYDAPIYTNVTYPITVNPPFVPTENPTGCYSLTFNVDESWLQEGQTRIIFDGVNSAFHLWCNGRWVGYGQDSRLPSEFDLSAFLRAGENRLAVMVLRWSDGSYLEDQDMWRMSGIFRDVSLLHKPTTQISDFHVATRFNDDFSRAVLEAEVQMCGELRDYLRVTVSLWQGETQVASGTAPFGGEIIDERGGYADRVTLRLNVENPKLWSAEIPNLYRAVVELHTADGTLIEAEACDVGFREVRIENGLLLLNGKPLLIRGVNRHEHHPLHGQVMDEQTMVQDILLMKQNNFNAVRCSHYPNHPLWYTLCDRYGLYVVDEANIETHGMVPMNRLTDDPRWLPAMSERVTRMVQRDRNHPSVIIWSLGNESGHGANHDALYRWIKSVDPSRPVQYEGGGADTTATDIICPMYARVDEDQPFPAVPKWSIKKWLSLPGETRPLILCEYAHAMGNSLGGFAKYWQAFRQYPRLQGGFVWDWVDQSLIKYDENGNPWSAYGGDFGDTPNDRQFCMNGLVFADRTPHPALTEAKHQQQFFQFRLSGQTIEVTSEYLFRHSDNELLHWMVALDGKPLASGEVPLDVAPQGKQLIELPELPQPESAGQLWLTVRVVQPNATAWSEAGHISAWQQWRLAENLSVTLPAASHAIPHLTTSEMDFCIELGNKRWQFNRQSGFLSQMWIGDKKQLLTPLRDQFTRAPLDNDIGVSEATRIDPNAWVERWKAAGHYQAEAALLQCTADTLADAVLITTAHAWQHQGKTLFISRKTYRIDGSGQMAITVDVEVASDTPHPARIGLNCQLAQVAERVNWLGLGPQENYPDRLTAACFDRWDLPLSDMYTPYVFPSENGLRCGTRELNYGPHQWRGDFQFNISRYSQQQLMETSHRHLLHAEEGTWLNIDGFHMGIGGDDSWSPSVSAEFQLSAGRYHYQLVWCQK

[6] = target: T1, Delta-type opioid receptor; assay: HTS Image-Based Screen for Agonists of the DOR Receptor. [Related pubchem assays (depositor defined):AID1777, AID1786, AID2133]; type: functional
[7] = target: T2, Kappa-type opioid receptor; type: functional
[8] = target: T1, Delta-type opioid receptor; assay: HTS Image-Based Screen for Antagonists of the DOR Receptor. [Related pubchem assays (depositor defined):AID1777, AID1785, AID1786, AID2133]; type: functional
[9] = target: T2, Kappa-type opioid receptor; type: functional; remark: listed apart in the source
Mu-type opioid receptor [10] = target: T3, Mu-type opioid receptor; assay: HTS Image-Based Screen for Agonists of the MOR Receptor. [Related pubchem assays (depositor defined):AID1777, AID1785, AID1786, AID2133]; type: functional
[11] = target: T5, Type-1 angiotensin II receptor (Homo sapiens, UniProt P30556); assay: AT1 receptor antagonists, dose response, selectivity assay for APJ receptor antagonist project, cell-based, uHTS hits (AID 463214); type: functional;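 further: antagonist potency against angiotensin II stimulated AT1 response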
T5 sequence (P30556 whole entry): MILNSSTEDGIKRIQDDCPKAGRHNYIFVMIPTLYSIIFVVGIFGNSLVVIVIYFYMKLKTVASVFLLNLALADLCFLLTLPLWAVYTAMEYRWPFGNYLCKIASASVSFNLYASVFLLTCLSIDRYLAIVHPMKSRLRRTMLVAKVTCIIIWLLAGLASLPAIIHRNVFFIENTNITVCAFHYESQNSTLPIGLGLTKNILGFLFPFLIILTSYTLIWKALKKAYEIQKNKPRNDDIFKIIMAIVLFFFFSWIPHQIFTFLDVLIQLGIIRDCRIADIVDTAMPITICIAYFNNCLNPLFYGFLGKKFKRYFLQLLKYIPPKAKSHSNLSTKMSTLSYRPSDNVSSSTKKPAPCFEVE

[12] = HepG2 cell cytotoxicity, dose response, cytotoxicity control for Shn3 inhibitor project, CellTiter-Glo, cherry-picked (AID 624134); type: functional, cell-based
[13] = target: 72 kDa type IV collagenase (Homo sapiens, UniProt P08253); assay: Dose Response validation of uHTS RPN11 inhibitor hits using a MMP-2 Fluorescence assay.; type: functional
Sequence of 72 kDa type IV collagenase (P08253 whole entry): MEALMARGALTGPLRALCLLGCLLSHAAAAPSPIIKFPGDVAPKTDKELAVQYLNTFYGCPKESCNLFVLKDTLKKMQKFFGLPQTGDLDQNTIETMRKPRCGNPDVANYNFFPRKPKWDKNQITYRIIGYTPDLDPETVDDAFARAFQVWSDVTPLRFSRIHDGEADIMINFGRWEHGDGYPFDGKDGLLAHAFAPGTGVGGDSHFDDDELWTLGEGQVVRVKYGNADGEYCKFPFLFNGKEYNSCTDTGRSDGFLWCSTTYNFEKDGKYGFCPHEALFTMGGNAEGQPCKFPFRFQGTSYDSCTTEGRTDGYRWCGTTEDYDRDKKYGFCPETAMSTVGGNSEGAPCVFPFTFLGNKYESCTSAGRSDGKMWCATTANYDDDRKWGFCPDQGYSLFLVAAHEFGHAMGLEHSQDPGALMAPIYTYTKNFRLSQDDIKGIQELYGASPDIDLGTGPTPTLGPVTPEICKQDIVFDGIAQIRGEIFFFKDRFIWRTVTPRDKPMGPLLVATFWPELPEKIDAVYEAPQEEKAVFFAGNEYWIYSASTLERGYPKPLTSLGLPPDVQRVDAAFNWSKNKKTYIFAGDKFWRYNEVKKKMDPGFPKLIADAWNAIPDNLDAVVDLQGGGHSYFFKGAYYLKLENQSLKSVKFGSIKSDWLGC

[14] = target: 26S proteasome non-ATPase regulatory subunit 14 (Homo sapiens, UniProt O00487); assay: inhibition of proteasome subunit RPN11 – biochemical, fluorescence polarization, uHTS hits, confirmation (AID 602368); type: functional
Sequence of 26S proteasome non-ATPase regulatory subunit 14 (O00487 whole entry): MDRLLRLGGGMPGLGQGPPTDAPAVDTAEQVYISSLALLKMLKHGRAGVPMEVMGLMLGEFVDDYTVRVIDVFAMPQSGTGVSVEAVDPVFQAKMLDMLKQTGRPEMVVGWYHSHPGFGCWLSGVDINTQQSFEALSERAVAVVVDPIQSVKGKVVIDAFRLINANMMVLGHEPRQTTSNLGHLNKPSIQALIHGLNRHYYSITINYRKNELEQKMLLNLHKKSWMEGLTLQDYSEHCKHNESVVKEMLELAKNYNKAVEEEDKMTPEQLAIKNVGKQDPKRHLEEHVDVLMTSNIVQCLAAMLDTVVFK

Prothrombin = Prothrombin (Bos taurus, UniProt P00735); assay: thrombin inhibition, dose response, biochemical, fluorescence polarization, uHTS hits (AID 602369); type: functional
Beta-galactosidase [15] = target: T4, Beta-galactosidase; assay: PubChem AID 485352; type: functional
[16] = inhibitors of intracellular T. cruzi replication, confirmation, NIH3T3 host cells, beta-gal luminescence (AID 2044); type: functional, cell-based;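 further: intracellular parasites grown in NIH/3T3 mouse fibroblasts as host cells; luminescent beta-galactosidase reporter signal from transgenic T. cruzi replicating inside host cells; inhibitors lower the luminescence signal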
[17] = reduction of Shn3 3'UTR firefly luciferase signal, dose response, Schnurri-3 inhibitor project, cell-based, Clone20 osteoblasts, cherry-pick, set 2 (AID 720490); type: functional;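 further: actives lower the luminescence signal as inhibitors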
[18] = cytotoxicity toward NIH3T3 fibroblasts, dose response, counter-screen, cell-based, ATP luminescence, mouse fibroblasts (AID 2010); type: functional;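 further: cells exposed to compound for about 90 hours before reading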
Cytochrome P450 2C9 = Cytochrome P450 2C9 (Homo sapiens, UniProt P11712)
Sequence of Cytochrome P450 2C9 (P11712 whole entry): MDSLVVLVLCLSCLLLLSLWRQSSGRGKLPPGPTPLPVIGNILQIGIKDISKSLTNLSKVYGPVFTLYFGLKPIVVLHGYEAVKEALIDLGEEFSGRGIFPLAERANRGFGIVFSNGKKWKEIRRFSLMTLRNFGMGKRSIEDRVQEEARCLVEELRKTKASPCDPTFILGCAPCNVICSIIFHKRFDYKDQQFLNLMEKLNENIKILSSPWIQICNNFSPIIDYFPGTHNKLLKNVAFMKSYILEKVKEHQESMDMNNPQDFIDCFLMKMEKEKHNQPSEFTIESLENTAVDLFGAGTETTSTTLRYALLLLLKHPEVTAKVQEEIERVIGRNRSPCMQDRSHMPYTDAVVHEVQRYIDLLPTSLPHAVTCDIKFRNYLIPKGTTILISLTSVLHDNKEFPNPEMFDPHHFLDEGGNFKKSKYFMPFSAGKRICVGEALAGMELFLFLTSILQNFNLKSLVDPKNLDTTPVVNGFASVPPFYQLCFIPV

[19] = Shn3 3'UTR reporter inhibitors, dose response, cell-based, Clone20 osteoblasts, firefly luciferase, cherry-picked (AID 624132); type: functional;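 further: firefly luciferase luminescence from reporter carrying the Shn3 3'UTR in osteoblasts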
[20] = target: Alkaline phosphatase, placental type (Homo sapiens, UniProt P05187); assay: PLAP enzyme inhibitors, confirmation, biochemical, luminescence (AID 1512); type: functional
Sequence of Alkaline phosphatase, placental type (P05187 whole entry): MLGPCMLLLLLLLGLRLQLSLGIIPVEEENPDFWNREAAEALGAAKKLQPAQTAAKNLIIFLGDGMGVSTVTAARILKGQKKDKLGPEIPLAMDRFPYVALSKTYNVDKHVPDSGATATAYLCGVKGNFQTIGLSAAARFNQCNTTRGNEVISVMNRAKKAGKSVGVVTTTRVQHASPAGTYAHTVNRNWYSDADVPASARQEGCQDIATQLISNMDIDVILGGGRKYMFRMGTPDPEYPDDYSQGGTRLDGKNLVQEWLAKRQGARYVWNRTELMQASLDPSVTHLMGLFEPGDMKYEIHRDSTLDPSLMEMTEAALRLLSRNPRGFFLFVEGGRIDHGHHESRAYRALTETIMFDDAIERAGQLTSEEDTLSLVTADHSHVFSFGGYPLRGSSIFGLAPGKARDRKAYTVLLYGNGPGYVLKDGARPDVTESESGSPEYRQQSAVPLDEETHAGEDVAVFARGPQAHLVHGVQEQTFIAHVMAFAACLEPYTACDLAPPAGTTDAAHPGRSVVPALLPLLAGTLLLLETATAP

IC50 [1]: > 32 µM (inactive)
IC50 [2]: 0.872 µM (active)
IC50 [3]: 2.32 µM (active)
IC50 (Mu-type opioid receptor [4]): 7.99 µM (active)
SMILES: Cc1cccc(S(=O)(=O)NCc2ccc(C(=O)NCCN(Cc3ccccc3)C(C)C)cc2)c1

EC50 (Beta-galactosidase [5]): > 31.5 µM (inactive)
EC50 [6]: > 32 µM (inactive)
IC50 [7]: 10 µM (active)
IC50 [8]: > 32 µM (inactive)
IC50 [9]: 9.42 µM
EC50 (Mu-type opioid receptor [10]): > 32 µM (inactive)
SMILES: COc1cc2c(c(OC)c1OC)-c1c(cc3c(c1OC)OCO3)C1OC2[C@@H](C)[C@H]1C (stereo partly drawn)

SMILES: Cc1cccc(CSc2cccc3cccnc23)c1
EC50 (Beta-galactosidase [5]): > 31.5 µM (inactive)
IC50 [11]: 10.1 µM (active)
AC50 [12]: > 70 µM (inactive)
IC50 [13]: > 100 µM (inactive)
IC50 [14]: 21.5 µM (active)
EC50 [6]: > 32 µM (inactive)
IC50 (Prothrombin): > 100 µM (inactive)
IC50 [7]: 8.68 µM (active)
IC50 [8]: > 32 µM (inactive)
EC50 (Beta-galactosidase [15]): > 40 µM (inactive)
EC50 [16]: 0.307 µM (active)
IC50 [9]: > 32 µM
EC50 (Mu-type opioid receptor [10]): > 32 µM (inactive)
AC50 [17]: 7.99 µM (active)
EC50 [18]: 9.65 µM (active)
AC50 (Cytochrome P450 2C9): inconclusive
AC50 [19]: 2.54 µM (active)

IC50 [20]: > 100 µM (inactive)
SMILES: CC(=O)NNc1ncnc2c1cnn2-c1ccc(C)cc1
